Results reported in patent US9981983B2, “Thienopyranones as kinase inhibitors” (SignalRx Pharmaceuticals, Inc., priority 2008, dated 2018).

Key:
[1] = test system: HUVEC (Endothelial-noncancer); experiment: Cell proliferation MTS assay, HUVEC; type: cell-based; details: Homo sapiens, 72 hours
Protocol: (§1) All cell lines were obtained from ATCC and cultured and plated according to ATCC recommendations. Cells were cultured in complete culture media containing 10% heat-inactivated fetal bovine serum (FBS, Mediatech, Inc.). For adherent cell lines, once cells reached 70% confluency, they were trypsinized and resuspended in phenol red free RPMI media (Mediatech, Inc.) plus 10% heat-inactivated FBS (assay buffer) and 100 μL aliquots were plated into each well of 96-well microtiter plates at a final density of 1,000-2,000 cells/well. Cells were incubated overnight at 37° C. in 5% CO2, and treated with test compounds on the next day. For suspension cell lines, cells were resuspended in assay buffer, plated into 96-well microtiter plates at a density of 10^4-10^5 cells/well/100 μL, and treatment was started on the same day. Cells were treated with vehicle (DMSO) and test compounds for 72 hours at concentration of 100, 70, 40, 20, 10, 5, 2.5, 1.25, 0.5 and 0.2 μM in four replicates at 37° C. in 5% CO2.

pAKT in 786-O cells = experiment: pAKT status DM50, 786-O; type: cell-based; details: Homo sapiens, 786-0, renal cell carcinoma
Protocol: PC3 cells were obtained from the American Type Culture Collection (ATCC, Manassas, Va., Cat.# CRL-1435). Two million cells from the prostate cancer line PC3 were placed into 6 cm culture dishes and allowed to grow in complete RPMI 1640 media (Invitrogen, Carlsbad, Calif., Cat.#22400-105) with 10% fetal bovine serum (Invitrogen, Carlsbad, Calif., Cat.#10438-026). After this time period the cells were serum starved for 5 hours followed by application of the test compound. Test compound was added as a DMSO (dimethyl sulfoxide) solution such that the final DMSO concentration in the cell media was less than or equal to 0.2% by volume After 30 minutes of exposure the growth factor stimulant, human IGF-1 (PeproTech, Inc., Rocky Hill, N.J., Cat.#100-11), was added to a final concentration of 0.1 μg/ml in each well. After 30 minutes of IGF-1 exposure, cells were removed from the media and cell lysates were prepared using RIPA Lysis buffer (Upstate, Lake Placid, N.Y., Cat.#20-188), keeping on ice. The pAKT serine 473 level was measured in duplicate samples of the cell lysates using commercially available assays such as the Pathscan® Sandwich ELISA kit for Ser473 pAKT (Cell Signaling, Danvers, Mass., Cat.#7160). A SpectraMax Plus spectrophotometric plate reader (Molecular Devices, Sunnydale, Calif.) was used to measure the optical density signal for pAKT at 450 nm (OD450 nm). The pAKT OD450 nm readings were normalized by total protein amount in the cell lysates determined by standard methods.
Concentrations of test compounds required to inhibit IGF stimulated pAKT levels to 50% of maximum levels in PC3 cells (termed DM50 for decreased maximum 50%) were calculated by inputting the dose responses in the software package GraphPad Prism4 (GraphPad Software, Inc., San Diego, Calif.).
Several other cancer cell lines were obtained from ATCC and grown according to the supplier's recommendations and treated with test compounds. DM50 values listed in Table 6 below were obtained by the methods described in Example A: […]

PC3 cells = experiment: PC3 prostate cancer cell proliferation (WST); type: cell-based; details: Homo sapiens, PC-3; 72 hours; read-out: IC50 PC3 Proliferation
OVCAR3 (Ovary) = experiment: Cell proliferation MTS assay, OVCAR3; type: cell-based; details: Homo sapiens, OVCAR-3, 72 hours
Protocol: as §1

PC3 (Prostate) = experiment: Cell proliferation MTS assay, PC3; type: cell-based; details: 72 hours
Protocol: as §1

BXPC3 (Pancreas) = experiment: Cell proliferation MTS assay, BXPC3; type: cell-based; details: Homo sapiens, BXPC-3, 72 hours
Protocol: as §1

RPM18226 (Myeloma) = experiment: Cell proliferation MTS assay, RPM18226; type: cell-based; details: 72 hours
Protocol: as §1

[2] = test system: 786-0 renal cell carcinoma xenograft; experiment: 786-0 renal cell carcinoma xenograft mouse model; type: in vivo, nude mice; details: ip, 3×/wk for 4 weeks
Protocol: To determine if Cpd 9 has anti-tumor effects, an in vivo study was conducted in a 786-0 renal cell carcinoma xenograft model, 786-0 cells (2×10^6) were inoculated subcutaneously into nude mice in the flank area and tumor growth was monitored with calipers via external measurements. Tumor volume was calculated using the formula volume=(length×width^2)/2. When the average tumor volume reached 400 mm^3, mice were randomly divided into 2 groups and treated with either DMSO (control) or Cpd 9 (25 mg/kg, ip) three times weekly (M, W, F) for two weeks.
To determine if Cpd 28 has anti-tumor effects, an in vivo study was conducted in a 786-0 renal cell carcinoma xenograft model, 786-0 cells (2×10^6) were inoculated subcutaneously into nude mice in the flank area and tumor growth was monitored with calipers via external measurements. Tumor volume was calculated using the formula volume=(length×width^2)/2. Treatment was started when tumors reached an average volume of 300 mm^3. […] DMSO was used as control since this was the vehicle the compounds were dissolved in. Tumor size was monitored twice weekly and body weight was monitored once weekly. Means and standard deviations were calculated and the Student t test method was used for statistical comparisons.

HL60 (AML) = experiment: Cell proliferation MTS assay, HL60; type: cell-based; details: Homo sapiens, HL-60, 72 hours
Protocol: as §1

[3] = Cell proliferation MTS assay, Hela; type: cell-based; details: Homo sapiens, 72 hours, read-out: IC50 Hela (Colon)
Protocol: as §1

IC50 (pAKT in 786-O cells): 1370 nM
IC50 (PC3 cells): 1300 to 1910 nM
IC50 (OVCAR3 (Ovary)): 1240 nM
IC50 (PC3 (Prostate)): 1220 nM
IC50 (BXPC3 (Pancreas)): 3350 nM
IC50 (RPM18226 (Myeloma)): 730 nM
IC50 (HL60 (AML)): 3060 nM
IC50 [3]: 2100 nM
Structure (SMILES): O=c1cc(N2CCOCC2)oc2c(-c3ccc4c(c3)OCCO4)csc12 [Compound 28, 3-(2,3-dihydrobenzo[b][1,4]dioxin-6-yl)-5-morpholino-7H-thieno[3,2-b]pyran-7-one]
IC50 [1]: 1230 nM
tumor growth inhibition compared to control ([2]; 25 mg/kg): 70%
body weight change or other abnormalities ([2]; 50 mg/kg): no significant body weight change or other abnormalities noted
tumor growth inhibition compared to control ([2]; 50 mg/kg): 81%
